Results on four molecules are retold here after patent US6777004B1, “Composition containing novel compound corniculatonin having antifungi properties and a process for preparing the same” (Council of Scientific & Industrial Research, priority 2001, dated 2004).

The test system of test [1] is T. tonsurans. In words: Disk diffusion assay, zone of inhibition. In kind it is cell-based, Trichophyton tonsurans. As to conditions: 250 μg. disk^−1; incubated at room temperature 42-120 hrs. An excerpt:
(§1) Agar: Czapek Malt Agar (Himedia laboratories Ltd.) was used for culturing Microsporumn gypseum, Trichophyton mentagrophytes T. tonsurans, T. violaceum, Aspergillus fresenii and A. niger. Mycological Agar (Himedia Laboratories Ltd) was used for Cryptococcus neoformans and Candida sp.
(§2) Pathogenic fungal strains of yeast and filamentous fungi identified and gifted by Dr. Savio from Goa Medical College, Bambolim, were used for the test. Strains of Aspergillus were isolated from the infected wheat bread with sterile needle; fungal material was surface sterilized using 0.5% sodium hypochlorite for 2-3 minutes, and then washed with small brush in sterile distilled water. Washed fungal material was transferred using needle into the sterile culture media and subcultured for purification by following standard methods (Collins and Taylor, 1967). Taxonomic identification was done by using various standard keys (Ainswort et al., 1973; Onion et al., 1981) and identification confirmed by Alka Pandey of Agarkar Research Institute, Pune.
Disk diffusion assay: The disk diffusion assay was used for screening of antifungal activity of the compound. The stock solution for the test was prepared by dissolving 5 mg of the compound of formula 1 in 200 μl dimethylsulfoxide (DMSO). […] The zones of inhibition around the disks were measured.
(In general: Agar diffusion results depend on both activity and mobility in agar.)

Test [2] relates to Aspergillus fresenii. Briefly: Disk diffusion assay, zone of inhibition. In kind it is cell-based. As to conditions: 250 μg. disk^−1; incubated at room temperature 42-120 hrs.
Excerpt: as §1, §2
(§3) Disk diffusion assay: The disk diffusion assay was used for screening of antifungal activity of the compound. The stock solution for the test was prepared by dissolving 5 mg of the compound of formula 1 in 200 μl dimethylsulfoxide (DMSO). From the stock solution 10 μl were spread on the paper disc so as to obtain the final concentration of 250 μg disk^−1 Control disk was applied reconstituted with only dimethylsulphoxide and were dried at 28-29° C. Completely dried disk was applied to innoculated plates. The plates were incubated at room temperature for the period between 42-120 hrs. to obtain maximum growth in the culture media. The zones of inhibition around the disks were measured.

For test [3], the system named is Aspergillus niger. In words: Disk diffusion assay, zone of inhibition. Format: cell-based. The conditions noted are these: 250 μg. disk^−1; incubated at room temperature 42-120 hrs.
Excerpt: as §1, §2, §3

For test [4], the system named is Candida sp. Briefly: Disk diffusion assay, zone of inhibition. In kind it is cell-based. As to conditions: 250 μg. disk^−1; incubated at room temperature 42-120 hrs.
Excerpt: as §1, §2, §3

In test [5] the test system is Cryptococcus neoformans. In words: Disk diffusion assay, zone of inhibition. The conditions noted are these: 250 μg. disk^−1; incubated at room temperature 42-120 hrs. Format: cell-based.
Excerpt: as §1, §2, §3

Test [6] relates to Microsporum gypseum. In words: Disk diffusion assay, zone of inhibition. Format: cell-based. The conditions noted are these: 250 μg. disk^−1; incubated at room temperature 42-120 hrs.
Excerpt: as §1, §2, §3

Test [7] deals with T. violaceum. Briefly: Disk diffusion assay, zone of inhibition. In kind it is cell-based. The conditions noted are these: 250 μg. disk^−1; incubated at room temperature 42-120 hrs.
Excerpt: as §1, §2, §3

The subject of test [8] is Trichophyton mentagrophytes. In words: Disk diffusion assay, zone of inhibition. In kind it is cell-based. As to conditions: 250 μg. disk^−1; incubated at room temperature 42-120 hrs.
Excerpt: as §1, §2, §3

The test system of test [9] is T. tonsurans. Briefly: Minimum Inhibitory Concentration (MIC), disk diffusion method. In kind it is cell-based, Trichophyton tonsurans. As to conditions: 3.12-50 μg per disk tested, 42-120 hrs at room temperature.
Excerpt: as §1, §2
Innocula were adjusted to 100 μl of Cryptococcus neoformans, Candida sp., Microsporum gypseum, Trichophyton tonsurans, T. violaceum and Trichophyton mentagrophytes and spread on the appropriate plates, excess moisture was allowed to absorb for 10 minutes before applying disks. […]

In test [10] the test system is Aspergillus fresenii. The description is as above. In kind it is cell-based. As to conditions: 3.12-50 μg per disk tested, 42-120 hrs at room temperature.
Excerpt: as §1, §2
(§4) Innocula were adjusted to 100 μl of Cryptococcus neoformans, Candida sp., Microsporum gypseum, Trichophyton tonsurans, T. violaceum and Trichophyton mentagrophytes and spread on the appropriate plates, excess moisture was allowed to absorb for 10 minutes before applying disks. Immediately prior to the assay, the testing compound of formula 1, object of the present invention, the reference compounds amphotericin B and nystatin, potency approx:750 μ/mg and 480 USP unit/mg respectively, were reconstituted in triplicate in dimethylsulfoxide. […] From the stock solution 10 μl were spread on the paper disk so as to obtain final concentration of 50 μg disc^−1, 25 μg disc^−1, 12.5 μg disc^−1, 6.25 μg disc^−1 and 3.12 μg disk^−1. Disks were dried at reduced pressure in the dessicator, at 28-29° C. and applied to innoculated plates.
(§5) In testing, the compound of formula 1 was reconstituted in dimethylsulfoxide (DMSO) immediately prior to all assays. Dimethylsulfoxide (DMSO) alone had no detectable inhibitory effect on any of the tested microbes. Compound of formula 1 was tested against a diverse collection of yeast and filamentous fungi, some of which are resistant to the reference compound nystatin. Filamentous fungi were nystatin resistant.

The test system of test [11] is Candida sp. The test is described as above. Format: cell-based. As to conditions: 3.12-50 μg per disk tested, 42-120 hrs at room temperature.
Excerpt: as §1, §2, §4, §5

Test [12] deals with Cryptococcus neoformans. Described as above. In kind it is cell-based. The conditions noted are these: 3.12-50 μg per disk tested, 42-120 hrs at room temperature.
Excerpt: as §1, §2, §4, §5

For test [13], the system named is Microsporum gypseum. Described as above. Format: cell-based. As to conditions: 3.12-50 μg per disk tested, 42-120 hrs at room temperature.
Excerpt: as §1, §2, §4, §5

Test [14] concerns T. violaceum. The description is as above. As to conditions: 3.12-50 μg per disk tested, 42-120 hrs at room temperature. Format: cell-based.
Excerpt: as §1, §2, §4, §5

For test [15], the system named is Trichophyton mentagrophytes. The test is described as above. The conditions noted are these: 3.12-50 μg per disk tested, 42-120 hrs at room temperature. In kind it is cell-based.
Excerpt: as §1, §2, §4, §5

Test [16] has as its system strains of yeast and filamentous fungi. In words: In vitro antifungal activity, disk diffusion, whole panel (summary in words). In kind it is cell-based. As to conditions: for antifungal activity in words: all the strains of yeast and filamentous fungi tested. Here is the method:
as §4, §5

Test [17] deals with Aspergillus niger. In words: Minimum Inhibitory Concentration (MIC), disk diffusion method. Format: cell-based. The conditions noted are these: 3.12-50 μg per disk tested, 42-120 hrs at room temperature.
Excerpt: as §1, §2, §4, §5

A further test concerns Cladosporium cucumerinum. The conditions noted are these: plant pathogenic fungus Cladosporium cucumerinum; cited from earlier work.

Take “3-O-α-rhamnopyranosyl-rhamnopyranosyl-glucopyranosyl-glucoronopyranosylgluco-pyrano side 16 α-hydroxy-13,28-epoxy oleanane [Compound 1]”: the “Disk Diffusion Method, zone of inhibition” value was found to be 14 mm in the test with T. tonsurans [1]; 10 mm in the test on Aspergillus fresenii [2]; 4 mm in the test with Aspergillus niger [3]; 9 mm in the test on Candida sp. [4]; 9 mm with Cryptococcus neoformans [5]; 14 mm with Microsporum gypseum [6]. Moreover, the “Disk Diffusion Method, zone of inhibition” value in the test with T. violaceum [7] was found to be 13 mm; in [8], 12 mm. Also, the MIC against T. tonsurans [9] is on record as 12.5-25 μg. disk^−1; in the test on Aspergillus fresenii [10], 25-50 μg. disk^−1; against Candida sp. [11], 6.25-12.5 μg. disk^−1; with Cryptococcus neoformans [12], 6.25-12.5 μg. disk^−1; against Microsporum gypseum [13] it was 12.5-25 μg. disk^−1; against T. violaceum [14] it was 25-50 μg. disk^−1. The MIC in [15] was 25-50 μg. disk^−1. For the same molecule, in test [16], the “antifungal activity in words” value was “fungicidal against all the strains of yeast and filamentous fungi tested except Aspergillus niger”.
Regarding `C[C@@H]1[C@H](O)[C@@H](C)/C=C/C=C/C=C/C=C/C=C/C=C/C=C/[C@H](O[C@@H]2O[C@H](C)[C@@H](O)[C@H](N)[C@@H]2O)C[C@@H]2O[C@](O)(C[C@@H](O)C[C@@H](O)[C@H](O)CC[C@@H](O)C[C@@H](O)CC(=O)O[C@H]1C)C[C@H](O)[C@H]2C(=O)O` [Amphotericin B, reference compound], the MIC against T. tonsurans [9] is on record as 6.25-12.5 μg. disk^−1; against Aspergillus fresenii [10], 12.5-25 μg. disk^−1; against Aspergillus niger [17], 12.5-25 μg. disk^−1; with Candida sp. [11], 3.12-6.25 μg. disk^−1; in the test on Cryptococcus neoformans [12], 3.12-6.25 μg. disk^−1; against Microsporum gypseum [13], 6.25-12.5 μg. disk^−1. Also, the MIC (with T. violaceum [14]; in [15]) was 6.25-12.5 μg. disk^−1 throughout. The “antifungal activity in words” value in [16] was “sensitive”.
Regarding `C[C@@H]1[C@H](O)[C@@H](C)/C=C/C=C/CC/C=C/C=C/C=C/C=C/C(O[C@H]2O[C@H](C)[C@@H](O)[C@H](N)[C@@H]2O)CC2O[C@](O)(CC(O)C(O)CCC(O)CC(O)CC(O)CC(=O)O[C@H]1C)CC(O)C2C(=O)O` (some centres unmarked) [Nystatin], the MIC against Candida sp. [11] and against Cryptococcus neoformans [12] was 6.25-12.5 μg. disk^−1 each time. For the same molecule, the “sensitivity of filamentous fungi in words” value in test [16] (filamentous fungi) was “resistant”.
For Sakurasaponin, the “antifungal amount in TLC bioassay” value with Cladosporium cucumerinum is 1 µg.
